Experimental data reported in publication PMC3794980, “Identification of Conserved and HLA Promiscuous DENV3 T-Cell Epitopes” (PLoS Neglected Tropical Diseases, 2013).
pIC50: −log10 of the molar value. Like-named read-outs stand apart in the source and are kept apart here. Where no end group is shown, it is not given here.

What was measured:
[1] = molecular target: DRB1*1101 (Homo sapiens, UniProt P01903+P01911, A100R/A169T/A87E/I96F/K41T/L162R/M171V/P40S/Q125H/Q178H/Q39Y/Q99D/R42S/S66Y/T262R/V115G/W38E); assay: biochemical; type: binding
[2] = molecular target: DRB3*0101 (Homo sapiens, UniProt P01903+P79483); assay: biochemical; type: binding
[3] = molecular target: DRB1*0802 (Homo sapiens, UniProt P01903+P01911, A100R/A103L/A169T/F76Y/H45Y/I96F/K41T/L162R/M171V/P40S/Q125H/Q178H/Q39Y/Q99D/R218S/R42G/S66Y/V115G/W38E); assay: biochemical; type: binding
[4] = molecular target: DRB1*0301 (Homo sapiens, UniProt P01903+P01911, A100K/A102G/A103R/A169T/F55Y/I96L/K41T/L162R/M171V/P40S/Q125H/Q178H/Q39Y/R42S/S66N/T106N/T262R/W38E/Y61H); assay: biochemical; type: binding
[5] = molecular target: DRB5*0101 (Homo sapiens, UniProt P01903+Q30154); assay: biochemical; type: binding
[6] = molecular target: DRB1*0901 (Homo sapiens, UniProt P01903+P01911, A100R/A103E/D57H/D86V/F55Y/F60I/F76Y/I96F/K127E/L162R/M171V/P40D/Q125H/Q99R/R33Q/R42F/S133A/S66N/T210M/V115G/W38K/Y107V/Y59G/Y89S); assay: biochemical; type: binding; conditions: competitive inhibition of radiolabeled standard peptide, read-out: Binding Affinity (nM) DRB1*0901
[7] = molecular target: DRB1*1501 (Homo sapiens, UniProt P01903+P01911); assay: biochemical; type: binding
[8] = molecular target: DRB1*0701 (Homo sapiens, UniProt P01903+P01911, A100R/A102G/A103Q/D57E/D86V/E43K/F76Y/K127E/L162R/M171V/P40G/Q125H/Q99D/R33Q/R42Y/R54Q/S133A/S66F/T210M/V115G/Y107V/Y59L/Y89S); assay: biochemical; type: binding
[9] = molecular target: DRB1*0101 (Homo sapiens, UniProt P01903+P01911, A100R/D57E/F55L/F60I/F76Y/I96L/L162R/M171V/P40L/Q125E/R42F/V115G/Y59C); assay: biochemical; type: binding
[10] = molecular target: DRB4*0101 (Homo sapiens, UniProt P01903+P13762, G164S); assay: biochemical; type: binding
[11] = molecular target: DRB1*1302 (Homo sapiens, UniProt P01903+P01911, A100E/A169T/K41T/L162R/M171V/P40S/Q125H/Q178H/Q39Y/Q99D/R42S/S66N/T262R/V115G/W38E/Y61H); assay: biochemical; type: binding; conditions: competitive inhibition of radiolabeled standard peptide, read-out: Binding Affinity (nM) DRB1*1302
[12] = molecular target: DRB1*0405 (Homo sapiens, UniProt P01903+P01911, A100R/A169T/D86S/F76Y/I96L/K127E/L162R/M171V/N62H/P40V/Q125Y/R42H/S133A/S149N/S66Y/V115G/V209L/W38E); assay: biochemical; type: binding
[13] = molecular target: DRB1*0401 (Homo sapiens, UniProt P01903+P01911, A100K/A169T/F76Y/I96L/K127E/L162R/M171V/N62H/P40V/Q125Y/R42H/S133A/S149N/S66Y/V115G/V209L/W38E); assay: biochemical; type: binding
[14] = molecular target: DRB1*0404 (Homo sapiens, UniProt P01903+P01911, A100R/A169T/F76Y/I96L/K127E/L162R/M171V/N62H/P40V/Q125Y/R42H/S133A/S149N/S66Y/V209L/W38E); assay: biochemical; type: binding
[15] = molecular target: T1, HLA-A*0201 (HLA-A2:Ig fusion protein) (Homo sapiens, UniProt P04439, D140Y/D185E/D98H/E176V/E277Q/G131W/G231S/I119V/I121R/I166T/I218V/L300P/L318F/N151K/N90K/P208A/P217A/Q86G/Q94H/R138H/R169H/T345S); assay: Competitive binding assay using HLA-A2:Ig fusion protein (fluorescence polarization)
T1 construct: two extracellular portions of the major histocompatibility complex (MHC) class I HLA-A2 domains fused to the […] of a mouse IgG1 antibody; purchased BD Biosciences (HLA-A2:Ig); Fitzgerald Industries (β2-microglobulin)
Method: The labeled peptide ([…]) was commercially synthesized by GenScript Corporation as a reference peptide for the binding assay. A fluorescein moiety was introduced into position P8 of the designed peptide ([…]). […] The lyophilized labeled peptide was diluted in 100% DMF (Dimethylformamide) to a final concentration of 10 mM. Subsequent dilutions were carried out using 0.5 mg/ml bovine-γ-globulin (BGG) in 1×PBS.
Soluble HLA-A2:Ig dimer complexes were obtained from BD Biosciences. This fusion protein consists of two extracellular portions of the major histocompatibility complex (MHC) class I HLA-A2 domains fused to the […] of a mouse IgG1 antibody. Additional β2-microglobulin (Fitzgerald Industries) was added to the binding assays to retain the fusion protein in a functional state. […] The competitive binding assays were carried out at room temperature for an incubation period of 3 days.
Both labeled and unlabeled peptides were added to the reaction mixture before the HLA-A2:Ig fusion protein, ensuring that both peptides were presented simultaneously to the HLA molecule. To avoid peptide photobleaching, the reaction mixture was incubated within aluminum foil covered microcentrifuge tubes. After the 3 days incubation period, 20 µl of the reaction mixture was loaded into individual wells of a black, non-binding surface (NBS) 384 well plate (Corning). Controls included only buffer (blank), protein and pFITC. Each experiment was performed in quadruplicate and reported as the mean with standard deviation.

[16] = predicted 9-mer tested, fluorescence polarization competition with fluorescein-labeled […], room temperature, 3 days, quadruplicate, read-out: Binding affinity

DRB1*1302, sequence (P01903 26-254 limits assumed, other chains not shown): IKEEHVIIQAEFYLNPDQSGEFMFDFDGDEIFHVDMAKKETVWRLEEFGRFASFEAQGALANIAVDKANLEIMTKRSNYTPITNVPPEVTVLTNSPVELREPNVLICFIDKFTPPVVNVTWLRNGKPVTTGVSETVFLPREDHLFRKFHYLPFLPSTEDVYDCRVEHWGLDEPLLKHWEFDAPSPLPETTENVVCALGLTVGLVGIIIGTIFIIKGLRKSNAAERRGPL
DRB1*0301, sequence (P01903 26-254, other chains not shown): as the sequence (P01903 26-254 limits assumed, other chains not shown) above
DRB1*1101, sequence (P01903 26-254, other chains not shown): as the sequence (P01903 26-254 limits assumed, other chains not shown) above

Row | Molecule | pIC50 [1] | pIC50 [2] | pIC50 [3] | pIC50 [4] | pIC50 [5] | IC50 ([6]; '-' distinct from ND) [nM] | pIC50 [7] | pIC50 [8] | pIC50 [9] | pIC50 [10] | IC50 ([11]; '-' distinct from ND) [nM] | pIC50 [12] | pIC50 [13] | pIC50 [14] | IC50 ([6]; DRB1*0901) [nM] | IC50 ([11]; DRB1*1302) [nM] | pIC50 [15, 16] | pIC50 [15] | pIC50 ([15]; read-out: IC50)
1 | CC[C@H](C)[C@H](NC(=O)[C@H](Cc1c[nH]c2ccccc12)NC(=O)[C@H](Cc1ccc(O)cc1)NC(=O)CNC(=O)[C@H](CCSC)NC(=O)[C@H](CC(=O)O)NC(=O)[C@H](C)NC(=O)[C@H](Cc1c[nH]cn1)NC(=O)[C@@H](NC(=O)[C@H](C)N)C(C)C)C(=O)N[C@@H](CCC(=O)O)C(=O)N[C@@H](CO)C(=O)N[C@@H](CCC(N)=O)C(=O)N[C@@H](CCCCN)C(=O)N[C@@H](CC(N)=O)C(=O)O [NS1 193-207] | 4.86 | 7.62 | 4.89 | 5.59 | 4.98 | 9890 | 5.20 | 5.10 | 5.92 | 6.74 | 33 | 5.49 | 5.45 | 5.24 |  |  |  |  | 
2 | CC(C)C[C@H](NC(=O)[C@H](C)NC(=O)[C@H](CC(C)C)NC(=O)[C@@H]1CCCN1)C(=O)N[C@@H](CCCCN)C(=O)N[C@@H](CCC(=O)O)C(=O)N[C@@H](Cc1ccccc1)C(=O)N[C@@H](CCCCN)C(=O)N[C@@H](CC(=O)O)C(=O)N[C@@H](Cc1ccccc1)C(=O)N[C@@H](C)C(=O)N[C@@H](C)C(=O)NCC(=O)N[C@@H](CCCNC(=N)N)C(=O)N[C@@H](CCCCN)C(=O)O [NS3 605-619] | 5.05 | 5.47 | 7.43 | 5.35 | 7.70 |  | 7.55 | 5.46 | 5.36 | 5.87 |  | 5.26 | 5.33 | 5.65 | 9320 | 19600 |  |  | 
3 | CC(C)C[C@H](NC(=O)[C@@H](N)CCCCN)C(=O)N[C@@H](CC(N)=O)C(=O)N[C@@H](CC(=O)O)C(=O)N[C@@H](Cc1c[nH]c2ccccc12)C(=O)N[C@@H](CC(=O)O)C(=O)N[C@@H](Cc1ccccc1)C(=O)N[C@H](C(=O)N[C@H](C(=O)O)C(C)C)C(C)C [NS3_399–407] |  |  |  |  |  |  |  |  |  |  |  |  |  |  |  |  | 6.96 |  | 
4 | CC(C)C[C@H](NC(=O)[C@H](C)NC(=O)[C@H](CCC(=O)O)NC(=O)[C@H](Cc1ccccc1)NC(=O)[C@H](CCC(=O)O)NC(=O)[C@H](CC(C)C)NC(=O)[C@H](Cc1ccc(O)cc1)NC(=O)[C@H](CCCNC(=N)N)NC(=O)[C@H](C)NC(=O)CNC(=O)[C@H](CC(C)C)NC(=O)[C@@H](N)Cc1c[nH]c2ccccc12)C(=O)NCC(=O)N[C@@H](Cc1ccccc1)C(=O)N[C@@H](CC(C)C)C(=O)N[C@@H](CC(N)=O)C(=O)N[C@@H](CCC(=O)O)C(=O)O [NS5 477-493] | 6.15 | 7.59 | 5.64 | 5.62 |  |  | 6.47 | 7.59 | 7.92 | 6.56 |  | 7.27 | 7.17 | 6.91 | 79 | 9750 |  |  | 
5 | EGKVVQYENLKYTVI [Envelope 126-140] | 5.05 | 5.69 | 7.43 | 6.16 | 5.61 | 3860 | 7.68 | 5.64 | 6.01 | 7.23 | 1480 | 7.05 | 5.86 | 5.22 |  |  |  |  | 
6 | GLFGKGSLV |  |  |  |  |  |  |  |  |  |  |  |  |  |  |  |  | 8.54 |  | 
7 | KLTDWDFVV [DENV4] |  |  |  |  |  |  |  |  |  |  |  |  |  |  |  |  |  | 7.21 | 
8 | RTNDWDFVV [DENV2 (1)] |  |  |  |  |  |  |  |  |  |  |  |  |  |  |  |  |  |  | 6.78
